Measured values taken from patent US9481885B2, “Methods and compositions related to miR-21 and miR-29a, exosome inhibition, and cancer metastasis” (Ohio State Innovation Foundation, priority 2011, dated 2016).

How the values were obtained:
spleen cells = experiment: Flow-cytometric analysis of CD69 in spleen cells of WT and TLR7−/− mice; format: cell-based, mouse; conditions: cytofluorimetry
Procedure: (§1) Experiments were performed to determine whether the miRNA-TLR interaction is functional, and assessed whether the miRNAs of interest induce the secretion of cytokines such as TNF-α and IL-6, whose production is increased by TLR activation. We isolated peritoneal macrophages from WT and TLR7^−/− B6 mice. Cells were treated with Dotap alone or with Dotap formulations of miR-16, -21, -29a, and -147, and an ELISA for TNF-α and IL-6 was performed. In the functional assays, included also were miR-147 and -574-5p, because they have a mature viral-derived sequence that induces cytokine production through the activation of TLR8 and TLR7, similar to that of RNA33 (FIG. 14A). […] We also treated spleen cells from WT and TLR7^−/− mice with the same miRNAs and assessed expression of CD69, an early activation marker of cells which has a role in inflammation and proliferation and which also is activated by TLR3. Polyinosinic:polycytidylic acid [poly (I:C)], a known agonist of TLR3, served as positive control.
Total splenocytes derived from WT and TLR7^−/− age- and sex-matched mice were prepared by harvesting the spleen and preparing a single-cell suspension. Red blood cells were eliminated by osmotic lysis using red blood cell lysis buffer (eBioscience). […] Cells were stained with phycoerythrin-conjugated anti-CD69 (BioLegend) antibody and analyzed using FACSCalibur flow cytometer (Becton Dickinson).

peritoneal macrophages = experiment: ELISA for TNF-α and IL-6 on peritoneal macrophages from WT and TLR7−/− mice; format: cell-based, mouse; conditions: Dotap formulations of miRNA
Procedure: as §1
For all experiments, cells were treated with 15 μg of HPLC-purified synthetic miRNAs (Integrated DNA Technologies) complexed with Dotap Liposomal Transfection Reagent (Roche) as previously described.
Macrophages derived from the peritoneal cavity were isolated from WT and TLR7^−/− age- and sex-matched mice.
PBMC were isolated from heparinized blood of healthy donors by Ficoll-Paque (Pharmacia) centrifugation (500×g) following the manufacturer's instructions and were plated immediately for stimulation. Human PBMCs or murine peritoneal macrophages (300,000 cells) were stimulated with synthetic miRNAs for 24 h; then ELISAs for TNF-α and IL-6 were performed on the conditioned media using Multi-Analyte ELISArray Kits (SABiosciences) following the manufacturer's instructions.

[1] = peritoneal macrophages of TLR7−/− B6 mice
[2] = peritoneal macrophages of WT B6 mice

Substance: miR-147: synthetic mature miRNA (SEQ ID NO: 3), sequence similar to RNA33, Dotap formulation (GUGUGUGGAAAUGCUUCUGC; DOTAP formulation, further chemistry not given here)
- CD69 activation (spleen cells; spleen cells from TLR7−/− mice): not
- CD69 activation (spleen cells; spleen cells from WT mice): induced
- IL-6 production (peritoneal macrophages; [1]): not
- TNF-α production (peritoneal macrophages; [1]): not
- IL-6 production (peritoneal macrophages; [2]): increased
- TNF-α production (peritoneal macrophages; [2]): increased
